The text below walks through data of article PMC3750730 (Neuroscience letters, 2013).

For data set [1], the target named is class II HDAC enzyme subtypes. Kind of data set: In vitro HDAC deacetylase activity assay. The format is biochemical. The conditions noted are these: read-out: IC50 class II HDAC enzyme subtypes; recombinant human HDACs.
Data set [2] is described as follows: Rat weight during seven days of daily treatment. The format is in vivo, rats. The conditions noted are these: Cpd-60 22.5 mg/kg, CI-994 5 mg/kg, vs vehicle-treated controls.
For the next data set, the system named is rats. As to conditions: rats treated with fluoxetine; cited from earlier work.
Another data set has as its system brain glucose. The conditions noted are these: rats treated with fluoxetine; cited from earlier work.

As to `CC(=O)Nc1ccc(C(=O)Nc2ccccc2N)cc1` [CI-994], the concentration for half-maximal inhibition (IC50) in data set [1] was greater than 33 µM. Further, in data set [2], the “effect on rat weight over seven days” value is “did not significantly affect rat weight”.

Take `CNCCC(Oc1ccc(C(F)(F)F)cc1)c1ccccc1` (stereo not shown) [fluoxetine]: the “behavioral effects in the forced swim test” value in the data set with rats is recorded as “antidepressant behavioral effects”. Besides, the brain glucose changes in the data set with brain glucose is given as 4–14%.
